In PMC8662641, “Site-Specific Labeling of Endogenous Proteins Using CoLDR Chemistry” (Journal of the American Chemical Society, 2021):
Where a name gives a salt, the structure may show the parent alone.

Key:
Bcr-Abl(WT) = system: Bcr-Abl(WT); set-up: method as in selleck (supplier comment); conditions: ref selleck (supplier comment); cited from earlier work
Bcr-Abl(T315I) = system: Bcr-Abl(T315I); set-up: method as in selleck (supplier comment); conditions: ref selleck (supplier comment); cited from earlier work
BTK = BTK (Homo sapiens, UniProt Q06187); set-up: BTK kinase domain was expressed and purified as previously reported; made in house; method as in Reddi et al., J. Am. Chem. Soc. 2021, 143 (13), 4979–4992; conditions: ref Reddi et al., J. Am. Chem. Soc. 2021, 143 (13), 4979–4992; cited from earlier work
BTK-1h = target: T1, BTK-1h (Homo sapiens, UniProt Q06187); test: High-throughput screening with 1h-labeled BTK; format: binding
T1 construct: The BTK kinase domain was diluted to 2 μM in the buffer, and 2 μM 1h was added; made in house
Protocol: The collection was composed of BTK binding compounds obtained in our previous luminescence screen[37] (Data set S2). […] The resulting BTK-1h (50 μL) was added to the inhibitors.

G-quadruplexe = target: G-quadruplexe; set-up: method as in selleck (supplier comment); conditions: cell-free assay; ref selleck (supplier comment); cited from earlier work
[1] = Dataset S2A, 200 μM compound, BTK-1h, 32 °C, 10 min
[2] = Dataset S2C, BTK-1h with inhibitor

T1 sequence (Q06187 402-655): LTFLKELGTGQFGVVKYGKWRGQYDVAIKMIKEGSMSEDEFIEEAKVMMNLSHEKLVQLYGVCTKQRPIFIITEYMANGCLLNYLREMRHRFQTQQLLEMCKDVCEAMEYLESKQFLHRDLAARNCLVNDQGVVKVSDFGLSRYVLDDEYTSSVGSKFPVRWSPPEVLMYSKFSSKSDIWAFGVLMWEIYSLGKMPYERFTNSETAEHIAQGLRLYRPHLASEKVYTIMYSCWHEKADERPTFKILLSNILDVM
Sequence of BTK (Q06187 402-655 limits assumed): as the sequence (Q06187 402-655) above

Row | SMILES | IC50 (Bcr-Abl(WT)) | IC50 (Bcr-Abl(T315I)) | BTK Inhibition reported in luminescence assay* (BTK) | FI (650)/FI (620) (BTK-1h; [1]) | FI (BTK-1h)/FI (BTK-1h+Inhibitor) at 620 nm (BTK-1h; [1]) | FI (650)/FI (620) (BTK-1h; [2]) | Kd (G-quadruplexe)
1 | Cc1ccc(C(=O)Nc2ccc(CN3CCN(C)CC3)c(C(F)(F)F)c2)cc1C#Cc1cnc2[nH]ncc2c1 [PCM-0215209-001, GZD824 Dimesylate] | 0.34 nM | 0.68 nM | 114.5 | 1.799 | 1.6661 | 1.6661 | 
2 | NCCOc1cc(C(=O)Nc2cc(OCCN)c3ccccc3n2)nc(C(=O)Nc2cc(OCCN)c3ccccc3n2)c1 [PCM-0215476-001, Pyridostatin Trifluoroacetate Salt] |  |  | 59.5 | 2.671 | 1.539 | 1.539 | 490 nM
